Experiment [1] relates to Aβ25-35 mouse model of Alzheimer's disease. The experiment is described as follows: Aβ25-35 mouse model, overall neuroprotection (summary statements). It is filed as in vivo. The protocol:
The compound efficacy was evaluated 7 days after the peptide administration on the attenuation of the Aβ25-35-induced learning deficits (spatial working memory using the spontaneous alternation in the Y-maze test, and contextual long-term memory using the passive avoidance test).
The mice were tested 7 days post injection or at the indicated time points.
(§1) In Experiment 2, twelve mice per experimental group were administered Sc.Aβ or Aβ25-35-amyloid peptide on day 0 by i.c.v. injection. […] Animals were tested at day 7 and later.
The synergy/additivity/antagonism was evaluated by calculating the combination index. […] Animals were then tested at day 7 and later.
Animals were tested at day 7 and later.
(§2) For each of Experiments 1-4, on day 7, all animals were tested for the spontaneous alternation performance in the Y-maze test, an index of spatial working memory. On day 8 and 9, the contextual long-term memory of the animals was assessed using the step-through type passive avoidance procedure. On day 9, immediately after the retention session, animals were sacrificed by decapitation and the hippocampus and cortex dissected out. Lipid peroxidation was analyzed in the hippocampus, whereas neuroinflammation, apoptosis, amyloid burden and hyperphosphorylation of tau protein were analyzed in cortex.

For experiment [2], the system named is gerbil model of global cerebral ischemia. The note with it: cited from earlier work.
Experiment [3] concerns sigma-1 receptor / BiP complex. The experiment is described as follows: Dissociation of BiP from sigma-1 receptor in CHO cells. It counts as cell-based. The settings on record: 1 μM and 10 μM, 30 min. The method, then:
CHO cells were grown in a 6-well plates and treated with the compounds in culture medium at 37° C. for 30 min at 1 μM and 10 μM final concentration. The reaction was stopped by medium removal and adding 3 mL PBS at 37° C. CHO cells were harvested and suspended in 50 mM HEPES (pH7.4) followed by cross-linking with 50 μg/ml of dithio (bis) succinimidyl propionate (Thermo Fisher Scientific, Waltham, Mass.) for 30 min at 4° C. The reaction was stopped by adding Tris-HCl (pH 8.8, final 50 mM). Fifteen minutes after incubation on ice, cells were lysed with RIPA buffer [50 mM Tris (pH7.4), 150 mM NaCl, 1% Triton X-100, 0.3% sodium deoxycholate, 0.1% SDS, protease inhibitor cocktail (Roche Complete)]. After centrifugation at 12,000 g, 1 min, the supernatant was incubated overnight at 4° C. with Sig-1R antibody (Abcam). The cell lysate was incubated with Sepharose protein-A (Invitrogen) for 90 min. After centrifugation at 12,000 g, 1 min, the supernatant was discarded and the pellet was washed in 0.5 mL RIPA buffer. After a second centrifugation at 12,000 g, 20 min, the supernatant was discarded and the pellet was washed in 0.5 mL 2× Sample buffer/bMCE buffer. Following a third centrifugation at 12,000 g, 1 min, the supernatant was analysed by ELISA assay, according to the manufacturer's protocol (USCNK #SEC343Mu).

Experiment [4] relates to Tau protein phosphorylated on Serine 199 (pTauS199). The experiment in a line: ELISA of cortical pTauS199, Aβ25-35 mouse model. The note with it: Experiment 2, post-treatment. It counts as in vivo. The protocol:
as §1, §2
Enzyme-linked immunosorbant assay (ELISA) assays: Contents in GFAP, Caspase 12, Amyloid-beta 1-40, Amyloid-beta 1-42, Total Tau, and pTau on Ser199 were analyzed by using commercial ELISA assay kit. • GFAP: Supplier: USCNK #Ref: SEA068Mu • Total Tau: Supplier: Novex #Ref: KMB7011 • pTau (S199): Supplier: Novex #Ref: KMB7041 • Amyloid beta 1-40: Supplier: Novex #Ref: KMB3481 • Amyloid beta 1-42: Supplier: Novex #Ref: KMB3441 • Caspase-12: Supplier: LSBio #Ref: LS-F11023 • BAX: Supplier: Euromedex#Ref: SEB343Mu • BCL2: Supplier: Euromedex #Ref: SEA778Mu […]
Background: In an ELISA, binding on a coated surface is turned into a signal by an enzyme label.

Molecules are shown by their SMILES. Where “and” joins values, the source holds several entries; their conditions need not be identical. Equal values may be shown once.

With `CCC(C/C=C/c1ccccc1)(c1ccccc1)N(C)CC1CC1` (single isomer, unassigned; (+)) [igmesine, (+)-(E)-N-(cyclopropylmethyl)-N-methyl-3,6-diphenylhex-5-en-3-amine], the “dose in combination versus dose active on depression (fold lower)” value in experiment [1] (combined with donepezil, ibuprofen, selegiline or atorvastatin) was 300 fold. Further, the “lowest dose with effect, preventive treatment” value in experiment [1] (given 20 min before Aβ25-35) is recorded as 0.3 mg/kg. For the same compound, the “lowest dose with effect, curative treatment” value in experiment [1] (starting 1 day after induction of the toxicity) is 1 mg/kg. Also, in experiment [1] (with donepezil, ibuprofen, selegiline or atorvastatin, not with memantine), the “synergistic effect in combination” value is “clear synergistic effect”. Further, the “effective doses, neuroprotective effects” value in experiment [2] is 50 mg/kg and 75 mg/kg and 100 mg/kg. Besides, the “dissociation of BiP from sigma-1 receptor” value in experiment [3] was “produced the dissociation of BiP from sigma-1 receptor in a dose-dependent manner”. Besides, the “elevation of cortical pTauS199” value in experiment [4] is listed as “fully normalized”.

(Values after US11129801B2 (SigmaThera SAS, priority 2016, dated 2021).)
